Here are results for one sequence from patent US11774455B2, “Peptide aptamer for specific recognition of arginine and its application” (INSTITUTE OF SUBTROPICAL AGRICULTURE, CHINESE ACADEMY OF …, priority 2019, dated 2023).

A short description of test [1]: Isothermal titration calorimeter binding to other amino acids. To be noted: amino acids having a similar structure to L-arginine. On the technique in general: In ITC the heat of successive injections is recorded.
Test [2] in a line: Binding verification by isothermal titration calorimeter with L-arginine. To be noted: ITC; 10 μM peptide aptamer titrated into 1 μM L-arginine, 10 mM PBS, pH 7.4, 37° C.; read-out: binding parameter Kd value. As to the method:
In the present invention, a primary sequence of an L-arginine sensing protein which can be recognized with L-arginine is obtained by searching for the L-arginine sensing proteins and transporters from a protein library, followed by cutting the primary sequence of the L-arginine sensing protein into 8 amino acid residues to obtain a peptide library and removing repeated peptide sequences from the peptide library. Next, a molecular simulation is performed on the peptides in the deduplicated peptide library and L-arginine to obtain a peptide aptamer library that can specifically bind to the arginine, and preferably, the peptide aptamer library is selected for experimental verification. Then, a binding verification is carried out on the peptide aptamer library and the arginine by an isothermal titration calorimeter. A verification method is as follows: 1 μM of the L-arginine is titrated with 10 μM of the peptide aptamer, a solvent and a binding buffer is 10 mM PBS buffer, pH is 7.4, and a binding temperature is 37° C., and the peptide aptamer that can specifically bind to the L-arginine can be determined.
Molecular simulation and binding verification of a peptide aptamer with L-arginine • A) Molecular simulation of the peptide aptamer and the L-arginine: AutoDock is used to place the L-arginine on the active site of the peptide aptamer, and its binding mode is predicted. […]

As to FGHIHEGY [peptide aptamer], the “binding ability to other amino acids (ITC)” value in test [1] is given as “no or very weak binding ability”. Moreover, the Kd in test [2] amounted to 13.3 µM.

What is called Kd is the equilibrium constant for the complex coming apart.
